Experiment [1] concerns the target T1, ER (Homo sapiens, UniProt P03372). Briefly: ER degradation by in-cell western (ICW), T47D cells. The class given is cell-based. More on the design: endogenous in cells; host or cells: T47D. Conditions: for DC50: T47D cells, ER in-cell western, 16 hours; for Dmax: T47D, read-out: T47D Dmax (%). On the procedure: (§1) ERa degradative activity of compounds can be assessed in MCF-7 and T47D Cells. MCF-7 and T47D cell are seeded and are subsequently treated with the compounds at certain concentrations (e.g., 0.02 to 300 nM). DMSO can be used as vehicle control. Cells are fixed and are blocked with Intercept (PBS) Blocking Buffer (e.g., Li—COR, Odyssey Blocking Buffer), and are stained with ER (e.g., 1:500, Cell signaling) primary antibody for overnight at cold room. Secondary Antibody (e.g., IRDye 800CW Goat anti-Rabbit IgG) and CellTag 700 Stain are added in Intercept (PBS) Blocking Buffer. Finally, cell plate is placed in incubator to dry. Image and signal were captured on Odyssey@DLx Imaging System.
(§2) In-cell western blot analysis. Cells are seeded in multi-well plates (e.g., at 40,000 or 10,000 cells/well). Diluted compounds at certain concentration are added (final 0.5% DMSO) and cells are incubated for certain period of time (e.g., 16 hours). Formaldehyde (e.g., PBS:FA=9:1) is added and followed by washing with PBS. The cells are blocked with Licor blocking buffer (Li-Cor). The relative ER percentage in treated cells were obtained by comparing the values of treated wells to those in untreated and DMSO-treated wells as 100%.
(§3) In-cell western blot analysis. a. seed cells in black-sided/clear bottom 96- or 384-well plates at 40,000 or 10,000 cells/well, overnight; b. add diluted compounds (final 0.5% DMSO), 16 hours. […] RT 2 h, gentle shaking. Negative control: cells plus secondary antibodies (no primary antibodies); e. wash×4 with PBS +0.05-0.1% Tween 20, gentel shaking; f. anti-rabbit-680 and anti-mouse-800 (both 1:1000 in LiCor block +0.05% Tween20, RT 1 h, gentle shaking, no light. LI-COR: 0.2% to reduce background; g. wash×4 with PBS+0.05% Tween 20, gental shaking; h. add 100 μL or 25 μL of PBS to each well and read on CLX plate reader. The relative ER percentage in treated cells were obtained by comparing the values of treated wells to those in untreated and DMSO-treated wells as 100%.

Experiment [2] has as its target T1, ER. The experiment is described as follows: ER degradation by in-cell western (ICW), MCF7 cells. It counts as cell-based. More on the design: endogenous in cells; host or cells: MCF-7. Conditions: for Dmax: MCF7, read-out: MCF7 Dmax (%); for DC50: MCF7 cells, ER in-cell western, 16 hours. On the procedure: as §1, §2, §3
The target in experiment [3] is CRBN/DDB1 (Homo sapiens, UniProt Q96SW2). Briefly: biochemical.
Chain of CRBN/DDB1 (Q96SW2 whole entry): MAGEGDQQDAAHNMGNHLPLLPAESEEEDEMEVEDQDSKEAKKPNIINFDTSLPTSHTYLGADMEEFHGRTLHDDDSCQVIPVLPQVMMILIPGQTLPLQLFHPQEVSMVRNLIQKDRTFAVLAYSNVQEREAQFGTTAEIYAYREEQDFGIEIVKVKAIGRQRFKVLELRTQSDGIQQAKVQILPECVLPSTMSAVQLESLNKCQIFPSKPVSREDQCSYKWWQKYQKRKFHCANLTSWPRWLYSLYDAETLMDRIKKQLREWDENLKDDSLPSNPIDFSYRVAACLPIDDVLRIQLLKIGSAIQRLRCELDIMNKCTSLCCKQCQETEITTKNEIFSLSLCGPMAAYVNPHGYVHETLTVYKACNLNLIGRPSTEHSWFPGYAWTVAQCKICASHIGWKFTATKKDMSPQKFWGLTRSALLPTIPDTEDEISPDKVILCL
Chain of CRBN/DDB1 (Q16531 whole entry, further chain): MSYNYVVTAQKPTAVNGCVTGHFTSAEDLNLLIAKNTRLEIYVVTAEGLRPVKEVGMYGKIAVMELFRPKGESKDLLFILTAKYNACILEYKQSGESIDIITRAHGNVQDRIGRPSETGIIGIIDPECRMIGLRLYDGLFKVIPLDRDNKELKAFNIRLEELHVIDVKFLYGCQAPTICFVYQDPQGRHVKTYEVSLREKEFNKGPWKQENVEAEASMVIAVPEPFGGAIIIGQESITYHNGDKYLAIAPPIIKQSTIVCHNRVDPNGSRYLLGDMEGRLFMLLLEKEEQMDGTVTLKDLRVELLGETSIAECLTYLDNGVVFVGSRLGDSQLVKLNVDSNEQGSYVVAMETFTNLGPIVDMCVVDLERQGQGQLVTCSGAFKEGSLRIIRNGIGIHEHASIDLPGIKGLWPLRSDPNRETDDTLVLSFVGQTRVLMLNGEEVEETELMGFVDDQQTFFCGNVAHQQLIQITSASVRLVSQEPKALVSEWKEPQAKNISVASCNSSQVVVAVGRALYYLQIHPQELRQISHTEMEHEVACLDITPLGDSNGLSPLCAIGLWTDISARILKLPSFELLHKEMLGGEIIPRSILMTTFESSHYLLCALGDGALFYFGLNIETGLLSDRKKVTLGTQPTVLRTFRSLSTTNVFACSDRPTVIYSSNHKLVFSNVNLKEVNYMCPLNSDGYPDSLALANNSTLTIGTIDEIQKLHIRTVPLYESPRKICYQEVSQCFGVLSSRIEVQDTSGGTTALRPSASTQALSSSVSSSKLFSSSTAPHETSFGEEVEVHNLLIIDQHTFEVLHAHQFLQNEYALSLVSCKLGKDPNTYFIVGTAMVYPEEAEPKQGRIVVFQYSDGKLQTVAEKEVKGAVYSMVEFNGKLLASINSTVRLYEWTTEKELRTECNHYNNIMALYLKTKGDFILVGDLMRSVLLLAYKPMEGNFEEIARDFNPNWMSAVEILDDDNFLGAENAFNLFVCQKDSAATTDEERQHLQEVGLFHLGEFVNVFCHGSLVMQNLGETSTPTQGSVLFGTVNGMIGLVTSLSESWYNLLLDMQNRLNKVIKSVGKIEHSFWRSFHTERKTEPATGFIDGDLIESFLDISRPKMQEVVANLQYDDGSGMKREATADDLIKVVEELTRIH
Experimental: The CRBN-DDB1 binding potency of the present disclosure was determined using HTRF assay technology (Perkin Elmer). Compounds are serially diluted and are transferred multi-well plate. […] After one hour incubation at room temperature, the HTRF signals were read on Envision reader (Perkin Elemer).
The binding potency was determined using HTRF assay technology (Perkin Elmer). Compounds were serially diluted in DMSO and 0.2 μL volume was transferred to white 384-well plate. […] After one hour incubation at room temperature, the HTRF signals were read on Envision reader (Perkin Elemer).
For experiment [4], the target named is wild-type human CRBN protein (Homo sapiens, UniProt Q96SW2). Briefly: biochemical.
Chain of wild-type human CRBN protein (Q96SW2 whole entry): as the sequence (Q96SW2 whole entry) above
Experimental: The binding to cereblon (CRBN) was determined using the Cereblon Binding Kit (Cisbio, #64BDCRBNPEG) following the manufacturer's instruction. Briefly, serially diluted compounds were incubated with GST-tagged wild-type human CRBN protein, XL665-labelled Thalidomide and Europium Cryptate labelled GST antibody at room temperature for about 3 hours.
The target of experiment [5] is T2, IKZF2 (Homo sapiens, UniProt Q96SW2+Q9UKS7).
T2 construct: host or cells: Jurkat-IKZF2-HiBiT
T2 sequence (Q9UKS7 whole entry): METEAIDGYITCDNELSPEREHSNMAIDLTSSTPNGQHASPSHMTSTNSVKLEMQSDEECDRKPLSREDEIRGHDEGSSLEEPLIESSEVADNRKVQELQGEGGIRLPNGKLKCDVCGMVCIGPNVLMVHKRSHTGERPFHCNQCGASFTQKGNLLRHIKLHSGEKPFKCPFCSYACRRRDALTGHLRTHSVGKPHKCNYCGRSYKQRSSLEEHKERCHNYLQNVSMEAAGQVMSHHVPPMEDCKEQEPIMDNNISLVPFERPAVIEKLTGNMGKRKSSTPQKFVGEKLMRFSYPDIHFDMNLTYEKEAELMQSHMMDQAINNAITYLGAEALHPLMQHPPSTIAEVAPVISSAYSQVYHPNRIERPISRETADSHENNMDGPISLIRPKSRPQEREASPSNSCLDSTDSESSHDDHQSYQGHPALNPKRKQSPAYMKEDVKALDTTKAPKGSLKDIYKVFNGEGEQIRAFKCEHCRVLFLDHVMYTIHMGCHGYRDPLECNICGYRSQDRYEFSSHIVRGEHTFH
T2 sequence (Q96SW2 whole entry): as the sequence (Q96SW2 whole entry) above
T2 sequence (Q16531 2-1140 partner limits assumed): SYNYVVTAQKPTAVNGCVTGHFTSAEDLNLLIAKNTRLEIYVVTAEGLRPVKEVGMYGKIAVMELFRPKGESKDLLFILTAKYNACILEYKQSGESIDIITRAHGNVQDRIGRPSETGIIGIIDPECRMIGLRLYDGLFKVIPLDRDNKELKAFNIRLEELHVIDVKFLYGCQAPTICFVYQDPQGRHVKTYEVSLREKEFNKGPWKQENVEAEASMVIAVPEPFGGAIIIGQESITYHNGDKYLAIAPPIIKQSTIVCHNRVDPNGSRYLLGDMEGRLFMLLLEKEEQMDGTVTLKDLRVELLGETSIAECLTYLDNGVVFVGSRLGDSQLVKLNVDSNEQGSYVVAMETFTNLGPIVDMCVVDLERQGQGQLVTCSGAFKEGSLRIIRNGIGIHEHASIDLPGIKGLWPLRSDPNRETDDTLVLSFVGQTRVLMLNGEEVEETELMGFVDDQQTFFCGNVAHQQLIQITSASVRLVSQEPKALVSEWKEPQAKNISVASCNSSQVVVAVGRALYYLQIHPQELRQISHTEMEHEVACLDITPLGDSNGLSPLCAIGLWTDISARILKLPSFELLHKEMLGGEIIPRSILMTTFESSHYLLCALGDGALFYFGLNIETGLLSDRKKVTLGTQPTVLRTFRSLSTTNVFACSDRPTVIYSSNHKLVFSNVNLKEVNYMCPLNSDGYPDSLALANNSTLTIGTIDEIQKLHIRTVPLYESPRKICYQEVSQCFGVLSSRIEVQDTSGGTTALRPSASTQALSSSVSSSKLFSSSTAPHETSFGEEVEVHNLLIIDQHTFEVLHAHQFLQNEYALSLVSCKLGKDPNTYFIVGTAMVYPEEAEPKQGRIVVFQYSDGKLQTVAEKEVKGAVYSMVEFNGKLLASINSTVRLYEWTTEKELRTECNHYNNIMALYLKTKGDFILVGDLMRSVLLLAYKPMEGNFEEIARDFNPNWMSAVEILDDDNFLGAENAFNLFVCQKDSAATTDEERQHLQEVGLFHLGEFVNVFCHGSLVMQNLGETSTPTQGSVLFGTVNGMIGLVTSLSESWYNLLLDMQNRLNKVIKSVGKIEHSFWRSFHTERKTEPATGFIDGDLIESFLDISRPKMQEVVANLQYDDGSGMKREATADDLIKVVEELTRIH
Briefly: IKZF2 HiBiT degradation assay (Jurkat-IKZF2-HiBiT). The class given is cell-based. On the procedure:
Degradation of IKZF2 protein was determined by IKZF2 HiBiT assay using the Jurkat-IKZF2-HiBiT (Promega) cell line. […] Compounds were serially diluted in culture medium, and 20 μl of the diluted compounds were added to the appropriate wells of the plate. After the addition of compounds, the cells were incubated at 37° C. in an atmosphere of 5% CO2 for 24 hours. At the end of treatment, 40 ul of Nano-Glo HiBiT Lytic Detection Reagent (Promega) was added to each well, and then the plates were incubated at room temperature for 10-20 minutes. The luminescent signal was measured using a CALRIOstar plate reader (BMG Labtech). The readings were normalized to the DMSO-treated cells and the IC50 was calculated by nonlinear regression (four parameters sigmoid fitted with variable slope, least squares fit, and no constraint) analysis using the GraphPad Prism 8 software.
(In general: HiBiT is a short tag that completes a luciferase, so light tracks the accessible tagged protein.)

Molecules are shown by their SMILES. pIC50: −log10 of the molar value. Counter-ions that a name gives are not always drawn.

T1 sequence (P03372 whole entry): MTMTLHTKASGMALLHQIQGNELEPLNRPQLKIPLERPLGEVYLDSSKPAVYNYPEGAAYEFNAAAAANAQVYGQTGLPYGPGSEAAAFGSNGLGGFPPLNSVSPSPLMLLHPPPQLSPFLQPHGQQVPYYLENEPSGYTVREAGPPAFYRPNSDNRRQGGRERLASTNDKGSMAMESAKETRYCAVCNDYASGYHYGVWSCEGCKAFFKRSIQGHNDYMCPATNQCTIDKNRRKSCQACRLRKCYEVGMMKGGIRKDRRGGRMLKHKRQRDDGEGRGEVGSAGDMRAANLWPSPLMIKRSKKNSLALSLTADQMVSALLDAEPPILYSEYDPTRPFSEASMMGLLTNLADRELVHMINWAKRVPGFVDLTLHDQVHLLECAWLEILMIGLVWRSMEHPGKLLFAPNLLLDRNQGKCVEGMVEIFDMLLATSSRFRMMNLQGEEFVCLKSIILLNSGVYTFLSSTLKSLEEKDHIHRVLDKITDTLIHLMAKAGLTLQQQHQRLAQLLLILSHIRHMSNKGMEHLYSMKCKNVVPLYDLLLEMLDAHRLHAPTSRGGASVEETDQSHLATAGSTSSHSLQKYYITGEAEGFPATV

The term DC50 denotes the concentration giving 50% degradation. As a reminder, the Dmax is the largest share of the target that was removed. For `C[C@@H]1Cc2c(ccc3[nH]ncc23)[C@@H](c2ccc(N3CCC4(CC3)CC(CN3CCN5c6cc7c(cc6OC[C@@H]5C3)C(=O)N([C@@H]3CCC(=O)NC3=O)C7)C4)cn2)N1CC1(F)CC1` [IDZ-A12, (R)-3-((S)-3-((7-(6-((6S,8R)-7-((1-fluorocyclopropyl)methyl)-8-methyl-6,7,8,9-tetrahydro-3H-pyrazolo[4,3-f]isoquinolin-6-yl)pyridin-3-yl)-7-azaspiro[3.5]nonan-2-yl)methyl)-8-oxo-1,2,3,4,4a,5,8,10-octahydro-9H-pyrazino[1′,2′:4,5][1,4]oxazino[2,3-f]isoindol-9-yl)piperidine-2,6-dione], the 50% degradation concentration (DC50) in experiment [1] and in experiment [2] was under 1 nM in each case. The greatest degradation seen (Dmax) in experiment [1] and in experiment [2] was over 75% each time.

The term pIC50 denotes −log10 of the IC50, conventionally taken in molar units. Low values mean a large IC50, high ones a small IC50. Consider `CC(C)(C)OC(=O)N1CCN2c3cc4c(cc3OC[C@@H]2C1)C(=O)N(C1CCC(=O)NC1=O)C4` (stereo partly drawn) [Compound A3, tert-butyl (4aS)-9-(2,6-dioxopiperidin-3-yl)-8-oxo-1,2,4a,5,9,10-hexahydro-8H-pyrazino[1′,2′:4,5][1,4]oxazino[2,3-f]isoindole-3(4H)-carboxylate], for which the negative-log IC50 (pIC50) in experiment [3] was 6.48.

Turning to `O=C1CC[C@H](NC(=O)c2cc3c(cc2F)N2CCNC[C@H]2CO3)C(=O)N1` [Compound A1, (S)—N—((S)-2,6-dioxopiperidin-3-yl)-9-fluoro-1,2,3,4,4a,5-hexahydrobenzo[b]pyrazino[1,2-d][1,4]oxazine-8-carboxamide hydrochloride], in experiment [3], the pIC50 is 4.66. Against the preceding compound, the pIC50 is 1.82 log units lower. `O=C1CC[C@@H](N2Cc3cc4c(cc3C2=O)OC[C@H]2CN(CC3CCC5(CC3)CN(c3ccc([C@H]6c7ccc(O)cc7OC[C@H]6c6ccccc6)cc3)C5)CCN42)C(=O)N1` [CHR-A118, (R)-3-((R)-3-((2-(4-((3R,4S)-7-hydroxy-3-phenylchroman-4-yl)phenyl)-2-azaspiro[3.5]nonan-7-yl)methyl)-8-oxo-1,2,3,4,4a,5,8,10-octahydro-9H-pyrazino[1′,2′:4,5][1,4]oxazino[2,3-f]isoindol-9-yl)piperidine-2,6-dione] yielded a DC50 in experiment [2] of 1 to 10 nM. For the compound `C[C@@H]1Cc2c([nH]c3ccccc23)[C@@H](c2cnc(N3CCC4(CC3)CC(CN3CCN5c6ccc(C(=O)N[C@H]7CCC(=O)NC7=O)nc6OC[C@H]5C3)CO4)nc2)N1CC(F)F` (stereo partly drawn) [IND-A63, (4aR)-3-((8-(5-((1R,3R)-2-(2,2-difluoroethyl)-3-methyl-2,3,4,9-tetrahydro-1H-pyrido[3,4-b]indol-1-yl)pyrimidin-2-yl)-1-oxa-8-azaspiro[4.5]decan-3-yl)methyl)-N—((S)-2,6-dioxopiperidin-3-yl)-1,2,3,4,4a,5-hexahydropyrazino[1,2-d]pyrido[2,3-b][1,4]oxazine-8-carboxamide], in experiment [1], the half-maximal degradation concentration (DC50) lay in the range of 1 to 10 nM and the maximal degradation (Dmax) lay in the range of 50 to 75%. Also, in experiment [2], the Dmax lay in the range of 50 to 75% and the DC50 is 1 to 10 nM. Take `O=C1CC[C@H](N2Cc3cc4c(cc3C2=O)OC[C@@H]2CN(CC3CC5(CCN(c6ccc([C@@H]7c8ccc(O)cc8OC[C@@H]7c7ccccc7)cc6)CC5)C3)CCN42)C(=O)N1` [CHR-A59, (S)-3-((S)-3-((7-(4-((3S,4R)-7-hydroxy-3-phenylchroman-4-yl)phenyl)-7-azaspiro[3.5]nonan-2-yl)methyl)-8-oxo-1,2,3,4,4a,5,8,10-octahydro-9H-pyrazino[1′,2′:4,5][1,4]oxazino[2,3-f]isoindol-9-yl)piperidine-2,6-dione]: in experiment [2], the maximal degradation (Dmax) was in the range of 50 to 75% and the DC50 fell in the range of 1 to 10 nM. For the compound `O=C1CC[C@H](N2Cc3cc4c(cc3C2=O)OC[C@@H]2CNCCN42)C(=O)N1` [Compound A8, (S)-3-((S)-8-oxo-3,4,4a,5-tetrahydro-1H-pyrazino [1′,2′:4,5][1,4]oxazino[2,3-f]isoindol-9(2H,8H,10H)-yl)piperidine-2,6-dione hydrochloride], in experiment [3], the negative-log IC50 (pIC50) was 6.37. Still for that read-out and setting: the figure for `CN1CCN2c3cc(F)c(C(=O)N[C@H]4CCC(=O)NC4=O)cc3OC[C@@H]2C1` [Compound A2, (S)—N—((S)-2,6-dioxopiperidin-3-yl)-9-fluoro-3-methyl-1,2,3,4,4a,5-hexahydrobenzo[b]pyrazino[1,2-d][1,4]oxazine-8-carboxamide] is 5.44.

The compound `CN(C(=O)c1ccc2c(n1)OC[C@H]1CNCCN21)C1CCC(=O)NC1=O` (stereo partly drawn) [Compound B20, (4aR)-N-(2,6-dioxopiperidin-3-yl)-N-methyl-1,2,3,4,4a,5-hexahydropyrazino[1,2-d]pyrido[2,3-b][1,4]oxazine-8-carboxamide] had a pIC50 in experiment [4] of 4.76.

For `O=C1CCC(N2Cc3cc4c(cc3C2=O)OC[C@@H]2CN(Cc3ccc(F)cc3)CCN42)C(=O)N1` (stereo partly drawn) [Compound C19, 3-((S)-3-(4-fluorobenzyl)-8-oxo-1,2,3,4,4a,5,8,10-octahydro-9H-pyrazino[1′,2′:4,5][1,4]oxazino[2,3-f]isoindol-9-yl)piperidine-2,6-dione], the half-maximal degradation concentration (DC50) in experiment [5] (read-out: IKZF2 degradation DC50, Jurkat-IKZF2-HiBiT cells, 24 hours) was over 2000 nM. The Dmax in experiment [5] (read-out: IKZF2 degradation Dmax (%)) stood at 0%. Moreover, in experiment [4], the pIC50 is 6.48. In experiment [4], `CN1CCN2c3cc4c(cc3NC(=O)[C@@H]2C1)C(=O)N(C1CCC(=O)NC1=O)C4` (stereo partly drawn) [Compound B10, (4aS)-9-(2,6-dioxopiperidin-3-yl)-3-methyl-2,3,4,4a,9,10-hexahydropyrazino[1,2-a]pyrrolo[3,4-g]quinoxaline-5,8(1H,6H)-dione] gave a pIC50 of 6.22. Take `CN(C(=O)c1ccc2c(c1)OC[C@H]1CNCCN21)C1CCC(=O)NC1=O` (stereo partly drawn) [Compound B21, (4aR)—N-(2,6-dioxopiperidin-3-yl)-N-methyl-1,2,3,4,4a,5-hexahydrobenzo[b]pyrazino[1,2-d][1,4]oxazine-8-carboxamide]: in experiment [4], the negative logarithm of the IC50 (pIC50) is 5.34. On the same count and under the same terms, the figure for `CN(C(=O)c1ccc2c(c1)OC[C@@H]1CNCCN21)C1CCC(=O)NC1=O` (stereo partly drawn) [Compound B24, (4aS)—N-(2,6-dioxopiperidin-3-yl)-N-methyl-1,2,3,4,4a,5-hexahydrobenzo[b]pyrazino[1,2-d][1,4]oxazine-8-carboxamide] is 5.47.

The values are drawn from patent publication US20260265271A1, “Cereblon Ligands and Uses Thereof” (REGENTS OF THE UNIVERSITY OF MICHIGAN, priority 2022, published 2026).
